Results taken from the supplement of paper PMC10307832.

Experiments:
Assay in all cases: relative viability (nuclei count vs DMSO), 5 days (fraction); higher = more cells survive
Neratinib + Luminespib = compound: CCOc1cc2ncc(C#N)c(Nc3ccc(OCc4ccccn4)c(Cl)c3)c2cc1NC(=O)/C=C/CN(C)C [Neratinib] + CCNC(=O)c1noc(-c2cc(C(C)C)c(O)cc2O)c1-c1ccc(CN2CCOCC2)cc1 [Luminespib] (partner 0.01 µM)
Summary of the method: (§1)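 Lung cancer cell lines were pin-tool dosed in 1536-well plates on the day after seeding, with either a lone drug or a fixed anchor-drug dose plus five library-drug doses (not always all listed) in √10 steps. Nuclei were counted on 4× images after 5 days. Relative viability is the ratio of treated-well to vehicle-well nuclei counts, with each value a median of duplicate plates.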

Neratinib + Lapatinib = compound: CCOc1cc2ncc(C#N)c(Nc3ccc(OCc4ccccn4)c(Cl)c3)c2cc1NC(=O)/C=C/CN(C)C [Neratinib] + CS(=O)(=O)CCNCc1ccc(-c2ccc3ncnc(Nc4ccc(OCc5cccc(F)c5)c(Cl)c4)c3c2)o1 [Lapatinib] (partner 2 µM)
Summary of the method: as §1

Neratinib + Decitabine = compound: CCOc1cc2ncc(C#N)c(Nc3ccc(OCc4ccccn4)c(Cl)c3)c2cc1NC(=O)/C=C/CN(C)C [Neratinib] + Nc1ncn([C@H]2C[C@H](O)[C@@H](CO)O2)c(=O)n1 [Decitabine] (partner 2 µM)
Summary of the method: as §1

Neratinib + Olaparib = compound: CCOc1cc2ncc(C#N)c(Nc3ccc(OCc4ccccn4)c(Cl)c3)c2cc1NC(=O)/C=C/CN(C)C [Neratinib] + O=C(c1cc(Cc2n[nH]c(=O)c3ccccc23)ccc1F)N1CCN(C(=O)C2CC2)CC1 [Olaparib] (partner 8 µM)
Summary of the method: as §1

Cell Line	relative viability (Neratinib + Luminespib; first compound 0.01 µM)	relative viability (Neratinib + Luminespib; first compound 0.03162 µM)	relative viability (Neratinib + Luminespib; first compound 0.1 µM)	relative viability (Neratinib + Luminespib; first compound 0.3162 µM)	relative viability (Neratinib + Luminespib; first compound 1 µM)	relative viability (Neratinib + Lapatinib; first compound 0.01 µM)	relative viability (Neratinib + Lapatinib; first compound 0.03162 µM)	relative viability (Neratinib + Lapatinib; first compound 0.1 µM)	relative viability (Neratinib + Lapatinib; first compound 0.3162 µM)	relative viability (Neratinib + Lapatinib; first compound 1 µM)	relative viability (Neratinib + Decitabine; first compound 0.01 µM)	relative viability (Neratinib + Decitabine; first compound 0.03162 µM)	relative viability (Neratinib + Decitabine; first compound 0.1 µM)	relative viability (Neratinib + Decitabine; first compound 0.3162 µM)	relative viability (Neratinib + Decitabine; first compound 1 µM)	relative viability (Neratinib + Olaparib; first compound 0.01 µM)	relative viability (Neratinib + Olaparib; first compound 0.03162 µM)	relative viability (Neratinib + Olaparib; first compound 0.1 µM)	relative viability (Neratinib + Olaparib; first compound 0.3162 µM)	relative viability (Neratinib + Olaparib; first compound 1 µM)
HCC-15	0.347	0.377	0.274	0.339	0.161	0.947	1.01	0.715	0.756	0.725	0.684	0.703	0.646	0.662	0.597	0.697	0.819	0.673	0.667	0.659
NCI-H2170	0.727	0.637	0.365	0.271	0.304	0.284	0.278	0.289	0.301	0.255	0.548	0.457	0.412	0.213	0.18	0.627	0.49	0.32	0.151	0.158
SW 1573	0.235	0.196	0.333	0.188	0.132	1.27	1.13	1.24	1.15	1.16	0.466	0.628	0.574	0.507	0.265	0.634	0.444	0.374	0.391	0.287
NCI-H2009	0.998	1.01	0.828	1.01	0.962	0.939	1.15	0.862	0.834	1.52	0.358	0.396	0.342	0.447	0.387	0.691	0.752	0.65	0.689	0.732
NCI-H358	0.301	0.518	0.279	0.108	0.12	0.502	0.47	0.42	0.405	0.237	0.205	0.186	–	0.129	0.117	0.552	0.569	0.409	0.238	0.162
NCI-H1915	0.845	0.818	0.422	0.792	0.462	1.05	1.05	0.898	0.832	0.964	0.262	0.271	0.251	0.241	0.286	0.232	–	0.221	0.245	0.252
UMC-11	1.15	1.1	0.964	0.903	0.763	1.03	1.11	0.604	0.841	0.745	0.324	0.574	0.634	0.414	0.194	0.362	0.388	0.33	0.361	0.299
LOU-NH91	0.38	0.328	0.338	0.331	0.287	0.809	0.776	0.733	0.743	0.567	0.794	0.775	0.68	0.673	0.604	0.977	0.944	–	0.678	0.632
